Test results reported in patent US11993576B2, “N-benzyl-N-arylsulfonamide derivative and preparation and use thereof” (Hangzhou Yirui Pharmaceutical Technology Co., Ltd, priority 2019, dated 2024).

Molecular target: human Kv1.3 (Homo sapiens, UniProt P22001)
Assay: IonWorks automated patch clamp assay of inhibitory activity against Kv1.3
Format: cell-based
Conditions: automated patch clamp method; CHO-K1 cells stably expressing human Kv1.3
Method: I. IonWorks Automated Patch Clamp Assay of Inhibitory Activity Against Kv1.3
The principle and method for Kv1.3 IonWorks assay can be found in Schroeder et al. [Schroeder et al. J Biomol Screen 2003, 8(1):50-64]
Inhibitory activity of the compounds against Kv1.3 was assessed using a CHO-K1 recombinant cell line stably expressing human Kv1.3 (Charles River, Calif.). The cells were cultured in an F-12K culture medium containing 5% calf serum (Invitrogen, Carlsbad. Calif.) in an incubator at 37° C. and under air humidity with 6% CO2. Prior to be fed in the IonWorks system, the adherent cells were treated with Versene at 37° C. for 6-7 min. After gently beating the culture flask, the cells were re-suspended in a PBS phosphate buffer, and then were centrifuged at 50×g for 4 min. After a short grinding, the cells were eventually re-suspended in an external recording solution at a density of approximately 1×10^6/mL.
The compounds were dissolved in DMSO to formulate a final assay concentration of 300× on the master plate. The final gradient assay concentrations were […], 0.096, 0.048, 0.24, 1.2, 6 and 30 μM. All 300× stock solutions of each compound in DMSO were transferred to a 384-well plate with 2 μl per well. The plates were sealed and stored at −80° C. until the day of assay.
On the day of assay, the plates were each thawed at room temperature. After centrifugation, 198 μl of the external recording solution (with the components of: 130 mM Na-Gluconate, 20 mM NaCl, 4 mM KCl, 1 mM MgCl2, 1.8 mM CaCl2, 5 mM Glucose and 10 mM HEPES, pH7.3) was added and mixed thoroughly. This step provided a 1:100 dilution for the compounds. After addition of cells to IonWorks, a further 1:3 dilution was carried out, resulting in a total dilution of 1:300. At least 8 wells were reserved as blank control on each of the plates, i.e., containing only 0.3% DMSO. In addition, at least 8 wells were reserved as positive control to detect the specificity to cell signals. Fluoxetine, a compound as the positive control, was assayed at its maximum blocking concentration (100 μm) and secondary maximum blocking concentration (10 μm). In addition, an internal recording solution used in the assay (with the components of: 100 mM K-gluconate, 40 mM KCl, 1 mM MgCl2, 1 mM EGTA and 10 mM HEPES, pH7.3) contained Amphotericin B at a final concentration of 200 μg/mL to gain current channels inside the cells. The osmotic pressure of the solution was adjusted with sucrose.
Experimental procedures were carried out following the protocols as set by IonWorks Quattro system (Molecular Devices, San Jose, CA). The current of human Kv1.3 was elicited to 0 millivolt (mV) for four times by a pulse lasting 1 second. A potential of −80 mV was maintained between pulses, for 5 seconds. First, a early voltage application program was started in the IonWorks Quattro system, and then the compounds were added and incubated for 600 seconds. Next, a late voltage application program was started until completion of all assays.
The maximum peak outward currents both before and after addition of the compounds as well as the average tail current elicited when the fourth pulse rose to 0 mV were measured. The inhibitory activity of the compounds against Kv1.3 can be calculated by dividing the measured current amplitude after addition of the compounds by the measured current amplitude before addition of the compounds.
All data was calibrated by a data filtration program of the IonWorks Quattro system. The filtration standard was that: seal quality >30 MΩ, decrease of seal resistance <50% and current amplitude >200 pA.

Sequence of human Kv1.3 (P22001 whole entry): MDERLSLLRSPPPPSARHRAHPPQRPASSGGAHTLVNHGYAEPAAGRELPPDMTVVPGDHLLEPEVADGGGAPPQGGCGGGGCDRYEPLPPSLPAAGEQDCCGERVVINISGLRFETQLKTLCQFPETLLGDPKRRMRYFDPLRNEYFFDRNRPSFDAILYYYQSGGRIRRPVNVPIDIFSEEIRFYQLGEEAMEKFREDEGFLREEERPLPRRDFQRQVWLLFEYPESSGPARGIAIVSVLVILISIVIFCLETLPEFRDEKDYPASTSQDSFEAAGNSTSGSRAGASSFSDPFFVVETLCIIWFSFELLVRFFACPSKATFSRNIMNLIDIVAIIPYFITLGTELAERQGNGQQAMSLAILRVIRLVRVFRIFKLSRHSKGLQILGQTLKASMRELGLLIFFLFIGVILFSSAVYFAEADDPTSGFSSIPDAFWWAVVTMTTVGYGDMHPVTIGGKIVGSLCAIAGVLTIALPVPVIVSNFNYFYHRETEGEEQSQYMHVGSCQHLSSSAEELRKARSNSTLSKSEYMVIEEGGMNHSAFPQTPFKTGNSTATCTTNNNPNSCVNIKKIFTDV

IC50 [µM]	SMILES
0.206	CN(C)C(=O)N1CCN(c2ccc(N(Cc3ccc(F)cc3)S(=O)(=O)CC(C)(C)C)cc2C#N)CC1 [Compound 40, 4-(2-cyano-4-((N-(4-fluorobenzyl)-2,2-dimethylpropyl)sulfonamido)phenyl)-N,N-dimethylpiperazin-1-formamide]
0.16	CCCS(=O)(=O)N(Cc1ccc(F)cc1)c1ccc(NC2CCN(C(C)=O)CC2)c(C#N)c1 [Compound 55, N-(4-((1-acetylpiperidin-4-yl)amino)-3-cyanophenyl)-N-(4-fluorobenzyl)propanesulfonamide]
0.25	CCCS(=O)(=O)N(Cc1ccc(F)cc1)c1ccc(OC2CCN(C=O)CC2)c(C#N)c1 [Compound 56, N-(4-((1-formylpiperidin-4-yl)oxy)-3-cyanophenyl)-N-(4-fluorobenzyl) propanesulfonamide]
0.441	CC(=O)N1CCC(Oc2ccc(N(Cc3ccccc3)S(=O)(=O)c3ccccc3)cc2C#N)CC1 [Compound 59, N-(4-((1-acetylpiperidin-4-yl)oxy)-3-cyanophenyl)-N-benzylbenzenesulfonamide]
0.167	CCCS(=O)(=O)N(Cc1ccncn1)c1ccc(N2CCN(C(=O)N(C)C)CC2)c(C#N)c1 [Compound 42, 4-(2-cyano-4-(N-(pyrimidin-4-ylmethyl)propanesulfonamido)phenyl)-N,N-dimethylpiperazin-1-formamide]
0.16	CCCS(=O)(=O)N(Cc1ccc(F)cc1)c1ccc(N2CCN(C(=O)OCC)CC2)c(C(F)(F)F)c1 [Compound 49]
0.131	CCCS(=O)(=O)N(Cc1ccncc1)c1ccc(N2CCN(C(=O)N(C)C)CC2)c(C#N)c1 [Compound 41, 4-(2-cyano-4-(N-(pyridin-4-ylmethyl)propanesulfonamido)phenyl)-N,N-dimethylpiperazin-1-formamide]
0.139	CCCS(=O)(=O)N(Cc1ccc(F)cc1)c1ccc(NC2CCNCC2)c(C#N)c1 [Compound 52, N-(3-cyano-4-(piperidin-4-ylamino)phenyl)-N-(4-fluorobenzyl) propanesulfonamide]
0.155	CC(C)CCS(=O)(=O)N(Cc1ccc(F)cc1)c1ccc(N2CCN(C(=O)N(C)C)CC2)c(C#N)c1 [Compound 39, 4-(2-cyano-4-((N-(4-fluorobenzyl)-3-methylbutyl)sulfonamido)phenyl)-N,N-dimethylpiperazin-1-formamide]
0.291	CCCS(=O)(=O)N(Cc1ccc(F)cc1)c1ccc(OC2CCN(C(C)=O)CC2)c(C#N)c1 [Compound 53, N-(4-((1-acetylpiperidin-4-yl)oxy)-3-cyanophenyl)-N-(4-fluorobenzyl) propanesulfonamide]
0.145	CN(C)S(=O)(=O)N1CCN(c2ccc(N(Cc3ccc(F)cc3)S(=O)(=O)c3cccnc3)cc2C#N)CC1 [Compound 48, 4-(2-cyano-4-(-N-(4-fuorophenyl)pyridin-3-sulfonamido)phenyl)-N,N-dimethylpiperazin-1-sulfonamide]
0.124	CCS(=O)(=O)N(Cc1ccc(F)cc1)c1ccc(N2CCN(S(=O)(=O)N(C)C)CC2)c(C#N)c1 [Compound 43, 4-(2-cyano-4-(N-(4-fluorobenzyl)ethanesulfonamido)phenyl)-N,N-dimethylpiperazin-1-sulfonamide]
0.356	CN(C)S(=O)(=O)N1CCN(c2ccc(N(Cc3ccnn3C)S(=O)(=O)c3ccc(F)cc3)cc2C#N)CC1 [Compound 46, 4-(2-cyano-4-((4-fluoro-N-((1-methyl-1H-pyrazol-5-yl)methyl)phenyl)sulfonamido)phenyl)-N,N-dimethylpiperazin-1-sulfonamide]

The next lines start with the molecule.

SMILES	IC50 [µM]
N#Cc1cc(N(Cc2ccccc2)S(=O)(=O)c2ccccc2)ccc1N1CCC(=O)CC1 [Compound 5, N-benzyl-N-(3-cyano-4-(4-oxopiperidin-1-yl)phenyl) benzenesulfonamide]	0.186
CCCS(=O)(=O)N(Cc1ccnn1C)c1ccc(N2CCN(C(=O)OCC)CC2)c(C#N)c1 [Compound 36, Ethyl 4-(2-cyano-4-(N-((1-methyl-1H-pyrazol-5-yl)methyl)propanesulfon-amido)phenyl)piperazin-1-formate]	0.13
CCOC(=O)NC1CCN(c2ccc(N(Cc3ccccc3)S(=O)(=O)c3ccccc3)cc2C#N)CC1 [Compound 14, ethyl 1-(4-(N-benzylbenzenesulfonamido)-2-cyanophenyl)piperidin-4-yl carbamate]	0.129
CC(=O)OC1CCN(c2ccc(N(Cc3ccccc3)S(=O)(=O)c3ccccc3)cc2C#N)CC1 [Compound 7, N-benzyl-N-(3-cyano-4-(4-acetyloxypiperidin-1-yl)phenyl)benzenesulfonamide]	0.312
CCCS(=O)(=O)N(Cc1cccc(OC)c1)c1ccc(N2CCN(C(=O)OCC)CC2)c(C#N)c1 [Compound 26, Ethyl 4-(2-cyano-4-(N-(3-methoxybenzyl)propanesulfonamido)phenyl) piperazin-1-formate]	0.42
N#Cc1cc(N(Cc2ccc(F)cc2)S(=O)(=O)c2ccccc2)ccc1N1CCC(O)CC1 [Compound 20, N-(3-cyano-4-(4-hydroxypiperidin-1-yl)phenyl)-N-(4-fluorobenzyl)benzenesulfonamide]	0.09
CN(C)CCOC1CCN(c2ccc(N(Cc3ccccc3)S(=O)(=O)c3ccccc3)cc2C#N)CC1 [Compound 18, N-benzyl-N-(3-cyano-4-(4-(2-(dimethylamino)ethoxy)piperidin-1-yl)phenyl)benzenesulfonamide]	0.101
CCCS(=O)(=O)N(Cc1cccc(F)c1)c1ccc(N2CCN(C(=O)OCC)CC2)c(C#N)c1 [Compound 23, Ethyl 4-(2-cyano-4-(N-(3-fluorobenzyl)propanesulfonamido)phenyl) piperazin-1-formate]	0.176
CCOC(=O)N1CCN(c2ccc(N(Cc3ccccc3)S(=O)(=O)c3ccccc3)cc2C#N)CC1 [Compound 1, ethyl 4-(4-(N-benzylbenzenesulfonamido)-2-cyanophenyl)piperazin-1-formate]	0.265
CCCS(=O)(=O)N(Cc1ccccn1)c1ccc(N2CCN(C(=O)OCC)CC2)c(C#N)c1 [Compound 32, Ethyl 4-(2-cyano-4-(N-(pyridin-2-ylmethyl)propanesulfonamido)phenyl) piperazin-1-formate]	0.165
CCCS(=O)(=O)N(Cc1ccccc1F)c1ccc(N2CCN(C(=O)OCC)CC2)c(C#N)c1 [Compound 25, Ethyl 4-(2-cyano-4-(N-(2-fluorobenzyl)propanesulfonamido)phenyl) piperazin-1-formate]	0.321
CCCS(=O)(=O)N(Cc1ccc(OC)cc1F)c1ccc(N2CCN(C(=O)OCC)CC2)c(C#N)c1 [Compound 29, Ethyl 4-(2-cyano-4-(N-(2-fluoro-4-methoxybenzyl)propanesulfonamido)phenyl)piperazin-1-formate]	0.439
CN1CCCN(c2ccc(N(Cc3ccccc3)S(=O)(=O)c3ccccc3)cc2C#N)C1=O [Compound 17, N-benzyl-N-(3-cyano-4-(3-methyl-2-oxotetrahydropyrimidin-1(2H)-yl)phenyl)benzenesulfonamide]	0.19
CC(=O)NC1CCN(c2ccc(N(Cc3ccccc3)S(=O)(=O)c3ccccc3)cc2C#N)C1 (centres unmarked) [Compound 15, N-(1-(4-(N-benzylbenzenesulfonamido)-2-cyanophenyl)pyrrolidin-3-yl)acetamide]	0.31
N#Cc1cc(N(Cc2ccccc2)S(=O)(=O)c2ccccc2)ccc1N1CCC(O)CC1 [Compound 6, N-benzyl-N-(3-cyano-4-(4-hydroxypiperidin-1-yl)phenyl)benzenesulfonamide]	0.193
CN(C)S(=O)(=O)C1CCN(c2ccc(N(Cc3ccccc3)S(=O)(=O)c3ccccc3)cc2C#N)CC1 [Compound 12, 1-(4-(N-benzylbenzenesulfonamido)-2-cyanophenyl)-N,N-dimethylpiperidin-4-sulfonamide]	0.234
